# Source: patent US12448388B2, “PRMT5 inhibitors and uses thereof” (Gilead Sciences, Inc., priority 2023, dated 2025)
# Assays:
# [1] = test system: HCT116 MTAP-deleted cell lines; assay: Cell viability assay (CellTiter-Glo, 7 days), HCT116 MTAP-deleted; assay type: cell-based; details: for Selectivity: HCT116 WT CC50 versus HCT116 MTAP^del CC50; for plasma-adjusted CC50 (paCC50): HCT-116, paCC50 = CC50-HCT116-MTAP^del * (% free CCM/% free human plasma); for CC50: Homo sapiens, HCT-116, 168 h, HCT116 MTAP-deleted, 7 days of treatment, CTG, read-out: CC50-HCT116-MTAP^del
# Summary of the method: (§1)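 PRMT5 inhibitors were serially diluted in DMSO and acoustically spotted as dose-response series into plates before cell seeding. Cells were grown with compound for 7 days at 37 °C, 5% CO2, 90% humidity, then viability was read by CellTiter-Glo luminescence and reported as CC50.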
# [2] = Cell viability assay (CellTiter-Glo, 7 days), HCT116 WT; assay type: cell-based; details: human, HCT116 WT cells, 7 days of treatment, CTG
# Summary of the method: as §1
# [3] = MDR1/BCRP assay: permeability in cPgp-KO-MDCK-WT cells; assay type: in vitro ADME; details: dog, pH 7.4
# Summary of the method: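 Compounds at 1 μM were dosed apically or basolaterally on 5-day confluent cPgp-KO-MDCK monolayers, HBSS/HEPES/glucose pH 7.4 donor and receiver with 1% BSA, duplicate wells. Receiver samples at 2 h were analysed by LC-MS/MS to give A→B and B→A Papp plus % recovery; TEER confirmed integrity.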
# [4] = PBS solubility (kinetic solubility from DMSO stocks); assay type: physicochemical; details: 22 °C, aqueous buffer, kinetic from dmso stock; 1x PBS pH 7.4, 1.0% DMSO, 24-hour incubation at ambient temperature
# Summary of the method: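 Kinetic solubility in 1× PBS pH 7.4 with 1.0% final DMSO, maximum theoretical concentration 100 μM from 10 mM stock. After 24 h at ambient temperature (20.8-24.0 °C) the samples were vacuum-filtered and filtrates quantified by nitrogen detection against a calibration curve. Values were background-corrected and reported in μM and μg/mL.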
# [5] = Hepatocyte stability assay, human; assay type: in vitro ADME; details: human hepatocytes, 1 μM
# Procedure: BioreclamationIVT (Baltimore, MD) provided the cryopreserved hepatocytes, hepatocyte thawing (HT) medium, and Krebs-Henseleit buffer (KHB) medium. The stock solution concentration was 1 M in DMSO and was then diluted further in acetonitrile/water (1:1 v/v). All other chemicals were purchased from Sigma-Aldrich (St. Louis, MO) or Thermo Fisher Scientific (Waltham, MA).
# The quench solution used to stop reactions in the hepatocyte incubations was comprised of 100% (v/v) acetonitrile. Internal Standard/Quench (IS/Q) solution used to stop reactions with the positive control also contained 200 nM Labetalol.
# Metabolic Stability in Cryopreserved Hepatocytes: Test compounds, or the positive control metabolic substrate, was incubated in suspensions of cryopreserved hepatocytes at a final concentration of 1 μM. Vials containing cryopreserved hepatocytes were removed from liquid nitrogen and immediately immersed in a 37° C. water bath. The vials were swirled gently until the contents had thawed. They were then immediately emptied into 48 mL of pre-warmed thawing medium in a 50 mL conical tube. Cells remaining in the vial were re-suspended with 1.0 mL of pre-warmed thawing medium and added to the conical tube. The tube was capped and then gently inverted several times to re-suspend the hepatocytes. The cell suspension was centrifuged at 500×g for 10 minutes at room temperature and the supernatant discarded. The cell pellet was loosened by gently swirling the centrifuge tube. Non-supplemented KHB medium was added to obtain the appropriate target cell density. The viabilities of all cell preparations were ≥85%, assessed by Trypan blue dye exclusion.
# For incubations, aliquots of hepatocyte suspension (250 μL containing a cell concentration of 2×10^6 cells/mL) were added to 250 μL of 2 μM substrate (test compound or positive control) in supplemented KHB in duplicate wells in a 24-well plate. Final concentration in the incubations were 1×10^6 cells/mL and 1 μM substrate. A cell-free control incubation (KHB only) was also included. The incubations were carried out with gentle shaking in a 37° C. incubator under a humid atmosphere of 95% air/5% CO2 (v/v). Aliquots (100 μL) were removed after 0, 1, 3, and 6 hours and added to 200 μL quenching solution. The samples were then placed on a shaker for 10 min followed by centrifugation at 3000×g for 20 min. The supernatant was transferred to a new plate and diluted with 100 μL of water to reduce the organic content and then placed on a shaker for 10 mins. Samples were injected and analyzed with methods described below.
# Liquid Chromatography: Quantification of positive control and test compound was performed by analyte/internal standard peak area ratios (PAR) measured on a Thermo Scientific™ Q Exactive™ Hybrid Quadrupole-Orbitrap Mass Spectrometer MS/MS with an electrospray interface operating in positive ion mode. The mass spectrometer was coupled to a Dionex Ultimate® 3000 HPLC system. Samples (10 μL aliquots) were injected with a Leap Technologies HTC PAL autosampler. For positive control, the column used was a Thermo Scientific™ Hypersil GOLD™ HPLC column ([…], 50×2.1 mm). Mobile phase A consisted of 95% (v/v) water, 5% (v/v) acetonitrile, and contained 0.1% (v/v) formic acid (FA). Mobile phase B consisted of 95% (v/v) acetonitrile, 5% (v/v) water, and contained 0.1% (v/v) FA. Elution was achieved, at a flow rate of 0.5 mL/min, by a series of linear gradients: initial condition was 5% B at 0 min, isocratic for 20 seconds; then linear gradient to 95% B over 90 seconds, followed by isocratic for 60 seconds at 95% B, and re-equilibrated to initial conditions over 70 seconds.
# Metabolic stabilities of positive control and test compound were determined by measuring the rates of disappearance of the parent with time by determining the % of parent remaining at time t (Ct) {Obach 1997}.
# Data (% of parent remaining) were plotted on a semi-log scale and fitted using an exponential fit: […]
"Papp A→B at 2 h, 1 µM [3] [×10⁻⁶ cm/s]",solubility at 24 h [4] [µM],Human Predicted Hepatocyte CL [5] [mL/min/kg],SMILES,Selectivity [1],plasma-adjusted CC50 (paCC50) [1] [nM],CC50 [1] [nM],CC50 at 7 days [2] [nM]
19.3,< 1,4.67,"Cc1ncc2c(N)nc3cnc(C(=O)N4CCC[C@@H]5Oc6cc(OC(F)(F)F)cc(F)c6[C@@H]54)cc3n12 [Fg-66, (4-amino-1-methylimidazo[1,5-a]pyrido[3,4-e]pyrazin-8-yl)((4aS,9bS)-9-fluoro-7-(trifluoromethoxy)-3,4,4a,9b-tetrahydrobenzofuro[3,2-b]867yridine-1(2H)-yl)methanone]",116,788,72,8370
18.5,1.7,4,"Cc1ncc2c(N)nc3cnc(C(=O)N4CCC[C@@H]5Oc6cc(C(F)(F)F)cc(F)c6[C@@H]54)cc3n12 [Fg-67, (4-amino-1-methylimidazo[1,5-a]pyrido[3,4-e]pyrazin-8-yl)((4aS,9bS)-9-fluoro-7-(trifluoromethyl)-3,4,4a,9b-tetrahydrobenzofuro[3,2-b]pyridin-1(2H)-yl)methanone]",112,402,38,4260
